Laboratory results from patent publication US20250091992A1, “NOVEL COMPOUNDS AND USES THEREOF” (KANNA HEALTH LIMITED, priority 2021, published 2025).
pIC50: −log10 of the molar value. Like-named read-outs stand apart in the source and are kept apart here.

Tests used:
[1] = molecular target: T1, human serotonin transporter (Homo sapiens, UniProt P31645); assay: cell-based;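 note: Read-out: uptake of tritium-labelled serotonin, measured by scintillation counting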
Description: (§6) Following incubation, [^3H] serotonin uptake was quantified by a standard scintillation counting method.

[2] = molecular target: human recombinant PDE-4B1 (Homo sapiens, UniProt Q07343); assay: PDE4-B1 assay (Compounds of Formula I), SPA; format: biochemical; settings: for IC50: 4-parameter logistical fit, two technical replicates; for inhibition at 30 µM: relative to Ro 20-1724
Sequence of human recombinant PDE-4B1 (Q07343 whole entry): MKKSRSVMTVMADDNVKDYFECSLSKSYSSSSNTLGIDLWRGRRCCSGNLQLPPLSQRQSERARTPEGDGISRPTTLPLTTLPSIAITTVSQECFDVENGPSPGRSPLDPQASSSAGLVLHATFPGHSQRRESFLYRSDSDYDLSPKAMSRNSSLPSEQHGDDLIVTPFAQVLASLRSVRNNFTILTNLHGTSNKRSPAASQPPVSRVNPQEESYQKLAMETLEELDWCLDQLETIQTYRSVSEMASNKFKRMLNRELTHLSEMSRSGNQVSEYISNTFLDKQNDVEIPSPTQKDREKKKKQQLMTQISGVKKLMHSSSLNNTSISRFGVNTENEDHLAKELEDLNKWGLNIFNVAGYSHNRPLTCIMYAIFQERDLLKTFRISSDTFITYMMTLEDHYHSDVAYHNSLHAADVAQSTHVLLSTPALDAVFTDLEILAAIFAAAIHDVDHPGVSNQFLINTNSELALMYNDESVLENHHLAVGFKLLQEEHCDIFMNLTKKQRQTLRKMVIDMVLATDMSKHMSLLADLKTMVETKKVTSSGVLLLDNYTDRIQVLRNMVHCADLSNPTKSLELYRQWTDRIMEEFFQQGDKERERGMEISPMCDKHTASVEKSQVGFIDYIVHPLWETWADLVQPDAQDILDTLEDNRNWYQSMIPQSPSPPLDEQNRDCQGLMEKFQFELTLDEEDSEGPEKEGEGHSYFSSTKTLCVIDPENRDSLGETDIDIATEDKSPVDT
Description: (§1) 20 mins after addition of human recombinant PDE-4B1 (1.2 IEU) or PDE-4D2 (1.5 IEU), SPA beads were added and incubated at 22° C. for a further 30 mins. [^3H]5′AMP was quantified by a standard scintillation counting method.

[3] = molecular target: human recombinant PDE-4D2 (Homo sapiens, UniProt Q08499); assay: PDE4-D2 assay (Compounds of Formula I), SPA; format: biochemical; settings: for IC50: 4-parameter logistical fit, two technical replicates; for inhibition at 30 µM: relative to Ro 20-1724
Sequence of human recombinant PDE-4D2 (Q08499 303-809): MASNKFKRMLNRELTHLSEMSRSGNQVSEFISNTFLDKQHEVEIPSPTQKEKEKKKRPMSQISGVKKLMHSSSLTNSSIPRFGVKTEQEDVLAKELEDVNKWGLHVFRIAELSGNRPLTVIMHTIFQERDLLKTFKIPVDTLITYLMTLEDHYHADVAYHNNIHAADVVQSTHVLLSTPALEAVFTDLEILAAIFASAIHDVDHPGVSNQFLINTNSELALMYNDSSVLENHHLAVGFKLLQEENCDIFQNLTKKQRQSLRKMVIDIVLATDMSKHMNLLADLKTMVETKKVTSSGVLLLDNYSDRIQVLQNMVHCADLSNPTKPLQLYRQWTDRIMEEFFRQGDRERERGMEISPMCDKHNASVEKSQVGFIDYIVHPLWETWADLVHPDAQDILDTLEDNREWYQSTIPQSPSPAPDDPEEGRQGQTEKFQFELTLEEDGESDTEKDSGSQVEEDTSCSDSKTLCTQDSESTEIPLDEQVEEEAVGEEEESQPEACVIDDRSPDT
Description: as §1

in vivo = assay: in vivo; design: species or system male C57Bl/6J mice; settings: male, C57Bl/6J, mouse, ip, 30 mg/kg
Description: Groups of 18 male C57Bl/6J mice (weighing between 22.7 and 27.3 g) received a single administration of test compound (30 mg/kg; i.p.) in methylcellulose (0.5% w/v) at a nominal concentration of […].
Three mice from each dose group were subject to cardiac puncture under general anesthesia at 0.25, 0.50, 1.00, 1.50, 2.00 and 4.00 hours post-dose and plasma samples generated for application of standard LC-MS/MS bioanalytical methods.
Quantitation of compound concentration was derived from reference calibration data. Pharmacokinetic data were derived from serial plasma concentrations.

[4] = system: time spent in centre of open field; assay: Open field test; format: in vivo, male C57Bl/6J mice; settings: for Time spent in centre during open field test, Low dose (0.3 mg/kg): 0.3 mg/kg i.p.; for Time spent in centre during open field test, Low dose (0.3 mg/kg) / Time spent in centre during open field test, High dose (3 mg/kg): 60 minutes before test; for Time spent in centre during open field test, High dose (3 mg/kg): 3 mg/kg i.p.
Description: The open field test is routinely applied in order to assess a compounds ability to affect anxiety, and as such as positive result may be indicative of a compounds anxiolytic activity (Kraeuter et al., 2019).
(§2) Male C57Bl/6J mice (3-4 months), were assigned to one of three groups receiving either test compound (0.3, 3.0 mg/kg) or vehicle (0.5% (w/v) methyl cellulose) via the i.p. route, 60 minutes before experimental examination.
(§3) The test compounds used were compound identification numbers 6, 13 and 21 from Table 1.
The duration of time the mouse spent in central, periphery and corners were quantified, with duration in the central area depicted as the primary outcome measure.
(§4) Data were tested for normality and outliers were removed.

time spent immobile = assay: Forced swim test; format: in vivo, male C57Bl/6J mice; settings: 60 minutes before test; for Time spent immobile during forced swim test, Low dose (0.3 mg/kg): 0.3 mg/kg i.p.; for Time spent immobile during forced swim test, High dose (3 mg/kg): 3 mg/kg i.p.
Description: The forced swim test is a standard model for examination of potential antidepressant-like activity and represents futility, despair, and motivation behavioural domains.
as §2, §3
The duration of time the mouse spent immobile during the forced swim test was measured.
as §4

[5] = molecular target: T1, human serotonin transporter; settings: for inhibition: 10 µM
Description: as §6

5-HT transporter = 5-HT transporter (Homo sapiens, UniProt P31645); settings: Harvey et al., 2011; cited from earlier work
Sequence of 5-HT transporter (P31645 whole entry, species assumed): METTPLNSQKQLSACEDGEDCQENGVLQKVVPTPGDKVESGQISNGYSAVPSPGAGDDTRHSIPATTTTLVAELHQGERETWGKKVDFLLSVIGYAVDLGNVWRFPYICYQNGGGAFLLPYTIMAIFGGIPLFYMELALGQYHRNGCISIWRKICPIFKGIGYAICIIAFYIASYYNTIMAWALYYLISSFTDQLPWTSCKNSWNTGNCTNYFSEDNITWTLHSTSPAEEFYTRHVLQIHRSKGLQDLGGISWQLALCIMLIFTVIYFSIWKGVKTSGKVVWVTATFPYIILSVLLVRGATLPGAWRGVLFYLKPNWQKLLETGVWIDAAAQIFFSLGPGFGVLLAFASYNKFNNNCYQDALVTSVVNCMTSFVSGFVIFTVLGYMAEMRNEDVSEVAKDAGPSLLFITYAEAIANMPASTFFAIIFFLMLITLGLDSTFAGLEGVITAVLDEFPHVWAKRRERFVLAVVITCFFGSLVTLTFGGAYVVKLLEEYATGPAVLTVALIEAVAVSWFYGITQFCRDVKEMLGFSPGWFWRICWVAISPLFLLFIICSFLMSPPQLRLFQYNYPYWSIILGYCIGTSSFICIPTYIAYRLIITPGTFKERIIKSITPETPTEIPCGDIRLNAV

PDE-4B = PDE-4B (Homo sapiens, UniProt Q07343); settings: Harvey et al., 2011; cited from earlier work
Sequence of PDE-4B (Q07343 whole entry, species assumed): as the sequence (Q07343 whole entry) above

[6] = Hepatocyte stability study; format: in vitro ADME; settings: human hepatocytes
Description: The compounds were added at a concentration of 1 μM to human hepatocytes (0.5×10^6 cells/ml in Williams E media supplemented with 2 mM L-glutamine and 25 mM HEPES) and incubated for 0, 5, 10, 20, 40 and 60 min at 37° C. Five replicates were performed for each compound.

TNF-α = assay: LPS-induced cytokine release from human PBMCs: TNF-α; format: cell-based
Description: (§5) Data were tested for normality.

IL-10 = assay: LPS-induced cytokine release from human PBMCs: IL-10; format: cell-based; settings: high concentration (10.0 μM)
Description: as §5

IL-1β = assay: LPS-induced cytokine release from human PBMCs: IL-1β; format: cell-based; settings: high concentration (10.0 μM)
Description: as §5

[7] = naturally occurring; cited from earlier work
[8] = medium (1.0 μM) and high (10.0 μM) concentration

T1 sequence (P31645 whole entry): as the sequence (P31645 whole entry, species assumed) above

COc1ccc([C@@]23CCC(=O)C[C@@H]2N(C)CC3)cc1OCc1ccccc1 [Compound 12]
pIC50 [1]: < 5.00

CCOc1ccc(C23C=CC(=O)CC2N(C)CC3)cc1OCC (stereo not shown) [Compound 44]
IC50 [2]: < 3 µM
IC50 [3]: < 3 µM
pIC50 [1]: < 5.52

C=CCOc1cc([C@@]23CCC(=O)C=C2N(C)CC3)ccc1OC [Compound 43]
IC50 [2]: > 3 µM
IC50 [3]: > 3 µM
pIC50 [1]: < 5.52

CCOc1ccc([C@@]23CCC(=O)C[C@@H]2N(C)CC3)cc1OC [Compound 31]
pIC50 [1]: > 7.00

CCOc1cc([C@@]23CCC(=O)C[C@@H]2N(C)CC3)ccc1OC [Compound 6]
AUC(0-inf) (in vivo): 1960 ng·h/mL
Cmax (in vivo): 2610 ng/mL
Tmax (in vivo): 15 min
half-life (in vivo): 33.6 min
Time spent in centre during open field test, Low dose (0.3 mg/kg) [4]: 9.4 s
Time spent in centre during open field test, High dose (3 mg/kg) [4]: 8.6 s
Time spent immobile during forced swim test, Low dose (0.3 mg/kg) (time spent immobile): 116 s
Time spent immobile during forced swim test, High dose (3 mg/kg) (time spent immobile): 88 s
pIC50 [5]: 8.70

COc1ccc([C@@]23C=C[C@@H](O)C[C@@H]2N(C)CC3)cc1OC [mesembrenol]
activity in 5-HT transporter binding assay (5-HT transporter): potently active
activity against PDE-4B (PDE-4B): potently active

[2H]C([2H])([2H])Oc1cc([C@@]23CCC(=O)C[C@@H]2N(C)CC3)ccc1OC [Compound 5]
inhibition at 30 µM [2]: 88%
inhibition at 30 µM [3]: 94%
half-life compared with non-deuterated mesembrine [6]: shorter half-life
hepatocyte CLint at 1 μM ([6]; 1 μM, 37° C., read-out: Qualified Clint): 21.1 µL/min/1e6 cells
half-life at 1 μM ([6]; 1 μM, 37° C., read-out: Qualified t1/2): 65.8 min
inhibition [5]: 98%

COc1ccc([C@@]23CCC(=O)C=C2N(C)CC3)cc1OC [Compound 41]
IC50 [2]: > 3 µM
IC50 [3]: > 3 µM
pIC50 [1]: > 5.52

COc1ccc([C@]23CCC(=O)C=C2N(C)CC3)cc1OC [Compound 40]
IC50 [2]: > 3 µM
IC50 [3]: > 3 µM
pIC50 [1]: < 5.52

COc1ccc([C@@]23CCC(=O)C[C@@H]2N(C)CC3)cc1OC1CCCC1 [Compound 11]
AUC(0-inf) (in vivo): 1040 ng·h/mL
Cmax (in vivo): 796 ng/mL
Tmax (in vivo): 15 min
half-life (in vivo): 56.4 min
Inhibition of TNF-α release compared to vehicle (significance) (TNF-α; all concentrations): inhibit TNF-α release at a statistically significant level
Inhibition of IL-10 (significance) (IL-10): statistically significantly inhibited
Inhibition of IL-β (significance) (IL-1β): statistically significantly inhibited
pIC50 [5]: 6.10

CCOc1ccc([C@@]23CCC(=O)C[C@@H]2N(C)CC3)cc1OCC [Compound 21]
AUC(0-inf) (in vivo): 1830 ng·h/mL
Cmax (in vivo): 2430 ng/mL
Tmax (in vivo): 15 min
half-life (in vivo): 34.2 min
Time spent in centre during open field test, Low dose (0.3 mg/kg) [4]: 13.7 s
Time spent in centre during open field test, High dose (3 mg/kg) [4]: 9.8 s
Time spent in the centre compared to vehicle (significance) ([4]; low dose of 0.3 mg/kg): statistically significant increase
Time spent immobile during forced swim test, Low dose (0.3 mg/kg) (time spent immobile): 105 s
Time spent immobile during forced swim test, High dose (3 mg/kg) (time spent immobile): 118 s
pIC50 [5]: 7.52
inhibition [5]: 91%

COc1ccc([C@@]23CCC(=O)C=C2N(C)CC3)cc1OC1CCCC1 [Compound 42]
IC50 [2]: > 3 µM
IC50 [3]: < 3 µM
pIC50 [1]: < 5.52

CCOc1ccc([C@@]23CCC(=O)C[C@@H]2N(C)CC3)cc1OCC1CC1 [Compound 24]
AUC(0-inf) (in vivo): 825 ng·h/mL
Cmax (in vivo): 492 ng/mL
Tmax (in vivo): 15 min
half-life (in vivo): 76.8 min
pIC50 [5]: 7.70
inhibition [5]: 91%

C=CCOc1cc([C@@]23CCC(=O)C[C@@H]2N(C)CC3)ccc1OC [Compound 13]
AUC(0-inf) (in vivo): 2100 ng·h/mL
Cmax (in vivo): 2330 ng/mL
Tmax (in vivo): 15 min
half-life (in vivo): 40.2 min
Time spent in centre during open field test, Low dose (0.3 mg/kg) [4]: 10.6 s
Time spent in centre during open field test, High dose (3 mg/kg) [4]: 8.8 s
Time spent immobile during forced swim test, Low dose (0.3 mg/kg) (time spent immobile): 119 s
Time spent immobile during forced swim test, High dose (3 mg/kg) (time spent immobile): 138 s
pIC50 [5]: 7.70
inhibition [5]: 100%

COc1ccc([C@@]23CCC(=O)C[C@@H]2N(C)CC3)cc1OC [Mesembrine, mesembrine, reference compound]
Qualified Clint ([6]; 1 μM, 37° C.): 16.3 μl/min/10^6 cells
Qualified t1/2 ([6]; 1 μM, 37° C.): 84.8
solubility in water [7]: scarcely soluble in water

CCOc1ccc([C@@]23CCC(=O)C[C@@H]2N(C)CC3)cc1OC1CCCC1 [Compound 27]
AUC(0-inf) (in vivo): 1400 ng·h/mL
Cmax (in vivo): 831 ng/mL
Tmax (in vivo): 15 min
half-life (in vivo): 58.2 min
Inhibition of TNF-α release compared to vehicle (significance) (TNF-α; [8]): inhibited TNF-α release at a statistically significant level
pIC50 [5]: 6.40
inhibition [5]: 96%

COc1ccc([C@@]23CCC(=O)C[C@@H]2N(C)CC3)cc1OCC1CC1 [Compound 1]
Inhibition of TNF-α release compared to vehicle (significance) (TNF-α; [8]): inhibited TNF-α release at a statistically significant level
Inhibition of IL-10 (significance) (IL-10): statistically significantly inhibited
Inhibition of IL-β (significance) (IL-1β): statistically significantly inhibited

C#CCOc1cc([C@@]23CCC(=O)C[C@@H]2N(C)CC3)ccc1OC [Compound 15]
IC50 [2]: < 3 µM
IC50 [3]: < 3 µM
pIC50 [1]: > 5.52

CCCCOc1cc([C@@]23CCC(=O)C[C@@H]2N(C)CC3)ccc1OC [Compound 2]
Inhibition of TNF-α release compared to vehicle (significance) (TNF-α; [8]): inhibited TNF-α release at a statistically significant level
Inhibition of IL-10 (significance) (IL-10): statistically significantly inhibited
pIC50 [5]: 7.52

CCCCOc1cc([C@@]23CCC(=O)C[C@@H]2N(C)CC3)ccc1OCC [Compound 20]
inhibition at 30 µM [2]: 83%
inhibition at 30 µM [3]: 92%
inhibition [5]: 100%

COc1ccc([C@@]23CCC(=O)C[C@@H]2N(C)CC3)cc1OCC(F)(F)F [Compound 4]
IC50 [2]: 7.1 µM
IC50 [3]: 11.3 µM
pIC50 [1]: > 7.00

CC(C)Oc1ccc([C@@]23CCC(=O)C[C@@H]2N(C)CC3)cc1OC1CCCC1 [Compound 28]
inhibition at 30 µM [2]: 53%
inhibition at 30 µM [3]: 55%
inhibition [5]: 98%
